Laboratory results: US8481538B2, “Heterocyclic inhibitors of c-Met and uses thereof” (Vertex Pharmaceuticals Incorporated, priority 2006, dated 2013)
pKi: −log10 of the molar value.

What follows are compounds tested against c-Met (Homo sapiens, UniProt P08581) (assay: Ki determination for the inhibition of c-Met (standard radiometric kinase assay)). Conditions: radiometric 33P-ATP assay, 1.0 nM c-Met, 35 μM ATP, 0.5 mg/mL polyE4Y, competitive tight-binding fit.
Assay type: biochemical
Description: Ki Determination for the Inhibition of c-Met
Compounds of the invention were screened for their ability to inhibit c-Met kinase activity using a standard radiometric assay. Briefly, in this kinase assay the transfer of the terminal ^33P-phosphate in ^33P-ATP to substrate polyE4Y is interrogated. The assay was carried out in 96-well plates to a final volume of 100 μL per well containing 1.0 nM c-Met, 100 mM HEPES (pH 7.5), 10 mM MgCl2, 25 mM NaCl, 0.01% BSA, 1 mM DTT, 0.5 mg/mL polyE4Y, and 35 μM ATP. Accordingly, compounds of the invention were dissolved in DMSO to make 10 mM initial stock solutions. Serial dilutions in DMSO were then made to obtain the final solutions for the assay. A 1.5 μL aliquot of DMSO or inhibitor in DMSO was added to each well. The reaction was initiated by the addition of ^33P-ATP and polyE4Y (obtained from Sigma). After 20 min, the reaction was quenched with 50 μL of 30% trichloroacetic acid (TCA) containing 4 mM ATP. The reaction mixture was transferred to the 0.66 mm GF filter plates (Corning) and washed three times with 5% TCA. Following the addition of 50 μL of Ultimate Gold™ high efficiency scintillant (Packard Bioscience), the samples were counted in a Packard TopCount NXT Microplate Scintillation and Luminescence Counter (Packard BioScience). The Ki values were calculated using Microsoft Excel Solver macros to fit the data to the kinetic model for competitive tight-binding inhibition.

Sequence of c-Met (P08581 25-1390): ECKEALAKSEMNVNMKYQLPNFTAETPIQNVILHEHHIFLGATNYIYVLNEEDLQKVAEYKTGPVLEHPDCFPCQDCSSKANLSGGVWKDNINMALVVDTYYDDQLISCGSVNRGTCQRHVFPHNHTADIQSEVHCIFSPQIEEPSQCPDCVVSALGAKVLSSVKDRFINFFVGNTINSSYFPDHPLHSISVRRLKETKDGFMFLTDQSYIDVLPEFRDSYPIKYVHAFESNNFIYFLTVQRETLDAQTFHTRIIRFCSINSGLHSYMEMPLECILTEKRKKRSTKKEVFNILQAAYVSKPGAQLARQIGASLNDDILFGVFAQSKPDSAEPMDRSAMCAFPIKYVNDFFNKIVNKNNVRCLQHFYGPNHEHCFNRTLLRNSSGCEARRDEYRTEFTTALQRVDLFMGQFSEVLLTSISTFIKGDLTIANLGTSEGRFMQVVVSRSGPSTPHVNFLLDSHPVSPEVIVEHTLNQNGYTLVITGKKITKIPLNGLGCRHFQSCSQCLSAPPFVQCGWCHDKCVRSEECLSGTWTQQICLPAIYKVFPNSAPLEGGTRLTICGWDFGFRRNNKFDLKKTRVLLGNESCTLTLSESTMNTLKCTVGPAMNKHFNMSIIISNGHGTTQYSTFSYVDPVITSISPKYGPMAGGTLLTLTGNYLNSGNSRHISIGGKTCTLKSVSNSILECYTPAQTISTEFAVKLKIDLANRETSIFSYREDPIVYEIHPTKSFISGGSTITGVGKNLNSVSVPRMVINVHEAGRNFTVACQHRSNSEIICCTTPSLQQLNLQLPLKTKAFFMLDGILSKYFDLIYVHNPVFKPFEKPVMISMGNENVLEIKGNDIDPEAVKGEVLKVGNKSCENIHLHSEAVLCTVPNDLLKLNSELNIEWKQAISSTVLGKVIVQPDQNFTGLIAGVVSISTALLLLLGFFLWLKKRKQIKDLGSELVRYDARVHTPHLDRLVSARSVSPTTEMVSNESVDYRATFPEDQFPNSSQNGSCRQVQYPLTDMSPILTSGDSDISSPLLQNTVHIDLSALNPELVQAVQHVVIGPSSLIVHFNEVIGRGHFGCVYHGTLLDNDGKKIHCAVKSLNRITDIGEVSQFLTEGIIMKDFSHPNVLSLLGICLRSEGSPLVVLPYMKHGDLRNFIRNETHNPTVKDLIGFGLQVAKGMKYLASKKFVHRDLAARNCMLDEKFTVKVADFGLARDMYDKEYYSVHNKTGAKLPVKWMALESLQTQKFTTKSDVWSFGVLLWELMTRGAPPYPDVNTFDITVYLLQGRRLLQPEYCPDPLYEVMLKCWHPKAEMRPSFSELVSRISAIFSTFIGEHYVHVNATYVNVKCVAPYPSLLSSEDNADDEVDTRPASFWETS

Q: With C[C@@H](NC(=O)c1nc(C#Cc2ccccn2)cnc1N)c1nnc2ccc(Nc3cccc(Cl)c3)nn12 [Compound 53] as the compound, how does the pKi read?
A: 5.60 to 6.60

Q: With CCc1cnc(N)c(C(=O)N[C@H](C)c2nnc3ccc(Nc4cccc(Cl)c4)nn23)n1 [Compound 52] as the compound, how does the pKi read?
A: 5.60 to 6.60

Q: CN(Cc1cccnc1N)Cc1nnc2ccc(Nc3cccc(Cl)c3)nn12 [Compound 11, N-(3-chlorophenyl)-3-(2-(N-((2-aminopyridin-3-yl)methyl)-N-(methyl)amino)methyl)-[1,2,4]triazolo[4,3-b]pyridazin-6-amine] was tested. Which pKi did it give?
A: 5.60 to 6.60

Q: How did the pKi turn out when C[C@@H](NC(=O)c1nc(C#CCCO)cnc1N)c1nnc2ccc(Nc3cccc(Cl)c3)nn12 [Compound 44] was run?
A: ≥ 6.60

Q: Nc1cccnc1NC(=O)Cc1nnc2ccc(Nc3cccc(Cl)c3)nn12 [Compound 8] was tested. Which pKi did it give?
A: 5.60 to 6.60

Q: C[C@@H](NC(=O)c1nc(C#CC(C)(C)C)cnc1N)c1nnc2ccc(Nc3cccc(Cl)c3)nn12 [Compound 51] was tested. Which pKi did it give?
A: 5.60 to 6.60

Q: With Cc1n[nH]c(C)c1-c1cnc(N)c(C(=O)N[C@H](C)c2nnc3ccc(Nc4cccc(Cl)c4)nn23)n1 [Compound 54] as the compound, how does the pKi read?
A: ≥ 6.60

Q: How did the pKi turn out when C[C@@H](NC(=O)c1cccnc1N)c1nnc2ccc(Nc3cccc(Cl)c3)nn12 [Compound 13] was run?
A: 5.60 to 6.60

Q: How did the pKi turn out when CC(C)[C@@H](NC(=O)c1nc(-c2ccccc2)cnc1N)c1nnc2ccc(Nc3cccc(Cl)c3)nn12 [Compound 35] was run?
A: < 5.60

Q: With CCC(C)Nc1ccc2nnc([C@@H](C)NC(=O)c3nc(-c4ccc(NC(C)=O)cc4)cnc3N)n2n1 (stereo partly drawn) [Compound 26] as the compound, how does the pKi read?
A: 5.60 to 6.60

Q: How did the pKi turn out when C[C@@H](NC(=O)c1nc(-c2ccccc2)cnc1N)c1nnc2ccc(Nc3cccc(Cl)c3)nn12 [Compound 21] was run?
A: ≥ 6.60

Q: C[C@@H](NC(=O)c1nc(C#CC2(O)CCCC2)cnc1N)c1nnc2ccc(Nc3cccc(Cl)c3)nn12 [Compound 45] was tested. Which pKi did it give?
A: 5.60 to 6.60

Q: C[C@@H](NC(=O)c1cc(Br)cnc1N)c1nnc2ccc(Nc3cccc(Cl)c3)nn12 [Compound 17] was tested. Which pKi did it give?
A: 5.60 to 6.60

Q: With CC(=O)Nc1ccc(-c2cnc(N)c(C(=O)N[C@H](C)c3nnc4ccc(Nc5cccc(Cl)c5)nn34)c2)cc1 [Compound 24] as the compound, how does the pKi read?
A: ≥ 6.60

Q: With CCOc1ccc2nnc([C@@H](C)NC(=O)c3nc(-c4ccc(CN5CCCC5)cc4)cnc3N)n2n1 [Compound 71] as the compound, how does the pKi read?
A: 5.60 to 6.60
